Where “and” joins values, the source holds several entries; their conditions need not be identical. Equal entries are not always repeated. Entries after “also recorded” stand apart in the source; their conditions may differ. Where two headings read alike, the source gives them in different places.
Key:
[1] = system: nicotine (10 μM)-evoked [3H]overflow from rat striatal slices; assay: Mecamylamine antagonism of nicotine-evoked [3H]overflow from rat striatal slices; type: cell-based
Procedure: (§1) Rat striata were rapidly dissected on ice and were sliced using a McIlwain tissue chopper. […] Slices were rinsed with 15 mL fresh buffer and then incubated in fresh buffer containing 0.1 μM [^3 H]DA (6-8 slices/3 mL) for an additional 30 min. Subsequently, slices were rinsed with 15 mL fresh buffer and transferred to a glass superfusion chamber. […] After 60 min of superfusion when basal outflow was stabilized, two 5-min samples (5 mL) were collected to determine basal [^3 H]outflow.
To determine the ability of mecamylamine to antagonize nicotine-evoked [^3 H]overflow, a repeated-measure design was utilized also. Individual slices were superfused with a single concentration (0.01-100 μM) of mecamylamine for 60 min, followed by 60 min of superfusion with nicotine (10 μM) in the presence of the various mecamylamine concentrations. One slice in each experiment was superfused in the absence of mecamylamine to determine the effect of nicotine alone. A control slice was superfused with buffer alone.
(§2) The pH and volume of the solubilized tissue samples were adjusted to those of the superfusate samples.
(§3) Fractional release for each superfusate sample was calculated by dividing the tritium collected in each sample by the total tritium present in the tissue at the time of sample collection. Fractional release was expressed as a percentage of total tritium in the tissue at the time of sample collection. Basal outflow was calculated from the average of the tritium collected in the two 5-min samples just before the addition of drug.
(§4) Inhibition of synaptosomal and vesicular [^3 H]DA uptake were analyzed by repeated-measures, one-way ANOVA, and by an iterative nonlinear least-squares curve-fitting program (GraphPAD-PRIZM; GraphPAD, San Diego, Calif.) to obtain IC50 values. Dunnett's post hoc test was used to compare treatment means to a single control mean. Also, Duncan's New Multiple Range Test or Fisher's LSD post hoc analysis were used to compare pairs of treatment means. Duncan's New Multiple Range Test was used when significant one-way ANOVA's were obtained or when significant main effects were obtained in the two-way ANOVA's. Fisher's LSD post hoc analysis is a more conservative test, which takes into account error which cumulates during multiple comparisons of pairs of means. Fisher's LSD analysis was used when the interaction term was significant in the two-way ANOVAs, specifically in the post hoc analysis of drug×time interactions. Statistical significance was reached when P<0.05 (two-tailed, unless otherwise indicated).

rat brain vesicles = conditions: cited from earlier work
[2] = target: T1, vesicular monoamine transporter-2 (VMAT2), DTBZ/TBZ site, rat striatal vesicle membranes (Rattus norvegicus, UniProt Q01827); assay: [3H]DTBZ binding to rat striatal vesicles; conditions: 2 nM [3H]DTBZ
T1 construct: from tissue; host or cells: rat striatum, synaptic vesicles

[3] = system: rat striatal synaptic vesicles; assay: [3H]DA release from striatal synaptic vesicles preloaded with [3H]DA; type: biochemical
Procedure: (§5) The homogenate was then centrifuged at 2,000×g for 10 min at 4° C. and the resulting supernatant was centrifuged at 10,000×g for 30 min at 4° C. Synaptosomes (buffy coat) were separated from the underlying mitochondria and cellular debris (reddish pellet) by gentle swirling in 2 mL of 0.32 M sucrose. The enriched synaptosome fraction (2.0 mL) was subjected to osmotic shock by addition of 7 mL distilled H2 0 and was homogenized with 5 up and down strokes of the TEFLON pestle. The osmolarity was restored by the addition of 900 μL of 0.25 M HEPES and 900 μL of 1.0 M neutral potassium-tatrate buffer (pH 7.5) followed by a 20 min centrifugation (20,000×g at 4° C.). The supernatant was then centrifuged for 60 min (55,000×g at 4° C.).
The final vesicle pellet from a pool of striata from three rats was resuspended in 3 mL of release assay buffer (in mM: 25 HEPES, 100 L-(+)-tartaric acid dipotassium salt, 0.05 EGTA, 0.10 EDTA, 2 Mg^2+ -ATP, and 1.7 ascorbic acid, pH 7.4) and then incubated with [^3 H]DA (0.3 μM) for 8 min at 37° C. […] [^3 H]DA efflux represents the net result of events, i.e., release and reuptake. […] The reaction was terminated by addition of 2.5 mL of ice-cold assay buffer containing 2 mM MgSO4. Samples were rapidly filtered through Whatman GF/F filters using the Brandel cell harvester.
The amount of drug-induced [^3 H]DA release from synaptic vesicles was calculated by subtracting the amount of tritium remaining in the drug-exposed samples from that remaining in the control samples (in the absence of drug). The amount of drug-induced [^3 H]DA release was then divided by the amount of tritium remaining in the control samples and was expressed as a percentage of control.
Concentration-response and kinetic data were analyzed by repeated-measures one-way ANOVA and between-group one-way ANOVA, respectively. When appropriate, Fisher's least significant difference post hoc test was used to determine significant differences between treatment means. IC50 and EC50 values were obtained by an iterative nonlinear least-squarescurve-fitting program (GraphPAD-PRIZM: GraphPAD, San Diego, Calif., U.S.A.) for one-site competition and sigmoidal concentration response, respectively. The t1/2 was obtained by an iterative nonlinear least-squares curve-fitting program for one-phase decay. KD and Bmax values were obtained by Scatchard analysis using an iterative linear least-squares curve-fitting program.

human VMAT2 [4] = conditions: read-out: Ki, inhibition of monoamine uptake; cited from earlier work
[5] = target: [3H]DTBZ binding site, rat striatal homogenates; conditions: read-out: Ki, inhibition of [3H]DTBZ binding; cited from earlier work
human VMAT2 [6] = conditions: read-out: Ki, inhibition of [3H]DTBZ binding; cited from earlier work
monoamine oxidase = conditions: cited from earlier work
VMAT2 knockout mice = conditions: mouse, in vivo; cited from earlier work
reserpine site on VMAT2 = conditions: read-out: IC50, inhibition of binding to the reserpine site; cited from earlier work
[7] = system: rat striatal slices preloaded with [3H]DA; assay: [3H]DA release assay: drug-evoked [3H]overflow / fractional release from rat striatal slices preloaded with [3H]DA; type: cell-based
Procedure: as §1
The concentration-response for each drug was determined using a repeated-measures design.
as §2, §3, §4

[8] = target: T2, plasma membrane DA transporter (rat striatal synaptosomes) (Rattus norvegicus, UniProt P23977); assay: [3H]DA uptake assay, striatal synaptosomal preparation; type: biochemical; conditions: nicotine 0.001 nM-100 μM
T2 construct: from tissue; host or cells: rat striatum, synaptosomes
Procedure: The homogenate was centrifuged at 2,000×g for 10 min at 4° C. […] The final protein concentration was 400 μg/mL. The assay was performed in duplicate in a total volume of 500 μL. […] The incubation continued for 10 min at 34° C. The reaction was terminated by the addition of 3 mL cold assay buffer (without 1 mM catechol). Samples were rapidly filtered through a Whatman GF/B filter using a Brandel cell harvester (model MP-43 RS, Biochemical Research and Development Laboratories, Inc., Gaithersburg, Md.) and the filter was subsequently washed 3 times with 4 mL of cold assay buffer containing 1 mM catechol. Filters were previously soaked for 2 hrs in the cold assay buffer containing 1 mM catechol. […] Filters were placed into scintillation vials, 10 mL of scintillation cocktail was added and radioactivity was determined by scintillation spectrometry.
(§6) Inhibition of synaptosomal and vesicular [^3 H]DA uptake were analyzed by repeated-measures, one-way ANOVA, and by an iterative nonlinear least-squares curve-fitting program (GraphPAD-PRIZM; GraphPAD, San Diego, Calif.) to obtain IC50 values. Dunnett's post hoc test was used to compare treatment means to a single control mean. Also, Duncan's New Multiple Range Test or Fisher's LSD post hoc analysis were used to compare pairs of treatment means. […]

[9] = target: T3, synaptic vesicular monoamine transporter (VMAT2), rat striatal synaptic vesicles (Rattus norvegicus, UniProt Q01827); assay: [3H]DA uptake assay, striatal synaptic vesicles; type: biochemical; conditions: nicotine
T3 construct: from tissue; host or cells: rat striatum, synaptic vesicles
Procedure: as §5
Samples were rapidly filtered through Whatman GF/F filters using the Brandel cell harvester.
as §6

[10] = target: central nicotinic receptors; conditions: read-out: Kd, binding to nicotinic receptors; cited from earlier work
[11] = system: nicotinic receptors in mouse brain; conditions: in vivo; cited from earlier work
[12] = system: locomotor activity in rats; conditions: rat, in vivo; cited from earlier work
[13] = system: conditioned place preference in rats; conditions: rat, in vivo; cited from earlier work
[14] = system: rat striatal slices preloaded with [3H]DA; conditions: cited from earlier work
[15] = system: self-administration by rats; conditions: rat, in vivo; cited from earlier work
[16] = system: nicotinic receptors in rat brain; conditions: in vivo; cited from earlier work

T2 sequence (P23977 whole entry): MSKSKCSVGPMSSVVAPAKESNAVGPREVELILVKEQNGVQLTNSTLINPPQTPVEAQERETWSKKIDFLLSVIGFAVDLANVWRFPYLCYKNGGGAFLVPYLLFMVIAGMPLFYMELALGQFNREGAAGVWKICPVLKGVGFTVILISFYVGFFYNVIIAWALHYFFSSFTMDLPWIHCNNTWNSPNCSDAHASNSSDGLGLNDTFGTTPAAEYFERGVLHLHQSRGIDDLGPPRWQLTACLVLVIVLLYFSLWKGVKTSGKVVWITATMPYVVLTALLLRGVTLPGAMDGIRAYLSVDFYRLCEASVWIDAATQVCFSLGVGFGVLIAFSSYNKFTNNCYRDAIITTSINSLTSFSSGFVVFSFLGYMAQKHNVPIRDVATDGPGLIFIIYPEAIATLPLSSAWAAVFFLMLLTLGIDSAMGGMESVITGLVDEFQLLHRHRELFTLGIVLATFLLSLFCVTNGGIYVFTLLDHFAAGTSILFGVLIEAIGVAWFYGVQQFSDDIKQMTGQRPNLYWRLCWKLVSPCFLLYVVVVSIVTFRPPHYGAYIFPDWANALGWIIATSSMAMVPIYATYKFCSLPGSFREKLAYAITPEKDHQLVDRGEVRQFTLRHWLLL
T3 sequence (Q01827 whole entry): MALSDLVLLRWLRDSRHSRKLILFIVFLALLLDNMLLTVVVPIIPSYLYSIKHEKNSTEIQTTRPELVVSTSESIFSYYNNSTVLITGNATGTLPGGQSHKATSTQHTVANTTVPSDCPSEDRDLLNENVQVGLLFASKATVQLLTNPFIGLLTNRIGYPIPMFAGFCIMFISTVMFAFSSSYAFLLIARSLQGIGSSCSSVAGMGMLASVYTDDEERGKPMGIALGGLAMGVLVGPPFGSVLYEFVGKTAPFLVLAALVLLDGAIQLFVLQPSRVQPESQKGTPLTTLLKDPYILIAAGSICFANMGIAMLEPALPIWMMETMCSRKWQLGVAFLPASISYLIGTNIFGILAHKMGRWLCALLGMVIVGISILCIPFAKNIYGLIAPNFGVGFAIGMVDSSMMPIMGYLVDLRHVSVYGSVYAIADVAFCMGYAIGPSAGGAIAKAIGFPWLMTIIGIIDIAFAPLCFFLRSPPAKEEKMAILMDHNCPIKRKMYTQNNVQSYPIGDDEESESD
T1 sequence (Q01827 whole entry): as above

CNC1(C)C2CCC(C2)C1(C)C (stereo not shown) [Mecamylamine]
inhibition at 0.01 µM ([1]; Rattus norvegicus, mecamylamine 0.01 μM, read-out: inhibition of nicotine's effect (fractional release)): 36% | minimal effective concentration ([1]; Rattus norvegicus, read-out: lowest concentration to produce significant inhibition of nicotine's effect (fractional release, collapsed across time)): 0.01 µM | Total [3H]overflow evoked by nicotine ([1]; mecamylamine 0.01 μM): 3.57 ± 1.52 | Total [3H]overflow evoked by nicotine ([1]; mecamylamine 0.1 μM, P<0.05 one-tailed): 2.40 ± 0.87 | Total [3H]overflow evoked by nicotine ([1]; mecamylamine 1 μM, P<0.05 two-tailed): 1.59 ± 0.64 | Total [3H]overflow evoked by nicotine ([1]; mecamylamine 10 μM, P<0.05 two-tailed): 1.02 ± 0.43 | Total [3H]overflow evoked by nicotine ([1]; mecamylamine 100 μM, P<0.05 two-tailed): 0.54 ± 0.32

COc1cc2c(cc1OC)C1CC(=O)C(CC(C)C)CN1CC2 (stereo not shown) [Tetrabenazine]
effect on spontaneous efflux of [3H]DA (rat brain vesicles): does not alter spontaneous efflux

C[C@H](N)Cc1ccccc1 [d-Amphetamine]
lowest concentration to significantly inhibit [3H]DTBZ binding [2]: 10 µM | potency in releasing DA from synaptic vesicles vs lobeline [3]: 10 fold | lowest concentration to evoke [3H]DA release from vesicles ([3]; 8 min, 37° C.): 1 µM | EC50 ([3]; 8 min, 37° C., read-out: EC50, evoked [3H]DA release from synaptic vesicles): 2220 ± 130 nM | Ki (human VMAT2 [4]): ~2000 nM | Ki [5]: > 20 µM | Ki (human VMAT2 [6]): 300 µM | inhibition of monoamine oxidase (monoamine oxidase): inhibits monoamine oxidase

CC(N)Cc1ccccc1 (stereo not shown) [amphetamine]
conditioned place preference in VMAT2 knockout vs wild-type mice (VMAT2 knockout mice): diminished amphetamine-induced conditioned place preference

CN[C@@H](C)Cc1ccccc1 [Methamphetamine]
IC50 (reserpine site on VMAT2): 400 nM

CN1CCC[C@H]1c1cccnc1 [Nicotine]
minimal effective concentration ([7]; Rattus norvegicus, read-out: lowest concentration which evoked a significant increase in [3H]overflow): 0.05 µM | time to peak fractional release after addition of drug ([7]; nicotine): 10 to 15 min | peak fractional release ([7]; nicotine 100 μM): 2 % of total tritium in the slice | total [3H]overflow ([1]; mecamylamine 0 μM (control)): 5.60 ± 1.20 | inhibition of [3H]DA uptake into striatal synaptosomes [8]: did not inhibit; also recorded: no inhibition of synaptosomal [^3 H]DA uptake was observed; also recorded: no effect was observed | concentration giving significant inhibition of vesicular [3H]DA uptake [9]: 1 mM and ~ 1 mM | Kd [10]: 1 to 7 nM | number of nicotinic receptors after chronic treatment [11]: increase in the number of nicotinic receptors | locomotor activity [12]: increase locomotor activity | conditioned place preference [13]: produce conditioned place preference | mechanism of nicotine-evoked DA release [14]: calcium-dependent, mecamylamine-sensitive and mediated by nicotinic receptors | self-administration [15]: avidly self-administered by rats | number of nicotinic receptors after chronic treatment [16]: increase in the number of nicotinic receptors
